In patent US4221909A, “P-Acetamidobenzoic acid salts of 9-(hydroxyalkyl) purines” (Sloan-Kettering Institute for Cancer Research, priority 1978, dated 1980):

Key:
Format in all cases: cell-based
[1] = test system: Influenza A USSR/90(H1 N1); assay: Anti-Influenza Activity (Hemadsorption Assay), Influenza A USSR/90
Experimental: Upon infection of a monolayer of tissue culture cells by influenza virus, the cell surface is altered so that guinea pig erythrocytes can be adsorbed to the cell surface. The number of foci of adsorbed cells (hemadsorption foci forming units HAFFU) is a quantitative measure of infectivity. The method is as follows.
The monolayers were subcultured in the following manner: The medium was poured off, and the monolayer washed two times with approximately 50 ml per wash of calcium and magnesium free phosphate buffered saline (PBS), (GIBCO #419) at a pH of 7.2. One ml of trypsin-EDTA solution (GIBCO #530L) containing 0.5 g trypsin (1:250) and 2.0 g EDTA/liter of Modified Puck's Saline A was added at 37° C. to each flask and dispersed over the monolayer with gentle shaking. The flasks were then placed in an incubator at 37° C. for approximately 3-5 minutes depending on the time required to dislodge the cells. Occasional shaking was required. Ten ml of planting medium was added to each flask and the cells dispersed by aspirating and expelling the suspension from the pipette. The contents of a series of flasks were pooled and the cells in the suspension were diluted with planting medium to 7-8.5×10^4 cells/ml. The planting medium consisted of the following composition: Minimum Essential Medium Eagles (MEM) with Earle's salts and HEPES buffer (GIBCO #236) supplemented by adding the following substances as specified to 87 ml of MEM:
The following day the medium was removed and replaced with fresh planting medium. The monolayers were used for experimentation when they reached a condition in which they were almost confluent (approximately 3-4 days).
When the Linbro tray HeLa cell cultures were ready for experimentation (see cells), the medium was decanted and 1 ml of maintenance medium (MEM with FCS reduced to 3%) containing the compound being tested at a given concentration was added to 4 replicate cultures within a tray.
A series of different drug concentrations ranging from 2.3 to 150 μg/ml were used. Maintenance medium alone was used for control cultures. After the administration of drug and control medium, 0.1 ml of the diluted viral suspension was added to experimental groups and infected control cultures. Saline alone was added to non-infected control cultures. The Linbro trays were then incubated at 37° C. for 18 hours, after which media in all groups was aspirated. Each culture was washed once with PBS. The saline was aspirated and 0.5 ml of a 0.4% v/v guinea pig red blood cell suspension in PBS was added to each culture well. The cultures remained at room temperature for 30 minutes after which the medium was decanted and culture washed […] with PBS to remove all but the specifically bound red cells. After the third wash, maintenance medium was added to all cultures.
A Howard Micrometer eyepiece (C8385) was inserted within the ocular of a Nikon inverted phase contrast microscope. Each culture was scanned with a 4× low paper objective and direct counts of hemadsorbed red cells were counted using the eyepiece grid as a field marker. Partial or complete fields were counted per experimental group depending on the resulting number and density of hemadsorbed cells in the infected control cultures. Magnification of 60× or 150× were chosen to obtain the best conditions for enumerating the hemadsorbed cells. Field factors were calculated for counting hemadsorption at 60× and 150×. At 60× magnification, total field count was calculated using a multiplication factor of 55.5. At 150× magnification the multiplication factor was 273. The multiplication factors of 55.5 and 273 represent the total number of fields at 60× and 150× magnifications, respectively. The number of fields counted ranged from 3 to 5 per well with 3 to 4 wells per treatment group employed (see raw data tables in results section for number of fields examined). Means and standard errors were calculated and the data was evaluated using student's t-test analysis.

[2] = test system: Mouse spleen cells; assay: Mitogen Induced (Con A) Mouse Lymphocyte Proliferation
Excerpt: (§1) The following three assay procedures are used to evaluate the ability of the test substances to modulate the activity of several classes of cells in the immune system. In these systems it is possible to identify both immunopotentiating activity (evidence by an enhancement of the parameter examined) as well as immunosuppressant activity (evidenced by an inhibition of the parameter examined).
1. Mitogen--Induced Mouse Spleen Cell Assay--Mouse spleen cells contain a population of both B and T lymphocytes which can be stimulated by a number of foreign substances (e.g., plant mitogens such as Con A) to proliferate. This enhanced proliferation is an indication of enhanced cell mediated immunity. The method below describes the system used to evaluate test substances as immunopotentiators.
Concanavalin A (Calbiochem, La Jolla, Calif.), Lot #210073, lyophilized in NaCl, was prepared first as a 1% solution and diluted as a 2× concentration for each dilution (0.5, 1.0, 2.5 μg/ml).
Six to eight week old male Balb/c and C3 H inbred mice were obtained from the following sources: Flow Research Animals, Inc., Dublin, Va.; Charles River Breeding Laboratories, Wilmington, Mass.; Laboratory Supply Company, Indianapolis, Ind.; and Lionel Strong Foundation, San Diego, Calif.
Three to five mice were sacrificed by cervical dislocation and the spleens aseptically removed. Pooled spleens were minced and teased with sterile forceps; then strained through a double layer of nylon mesh. The cell suspension was washed once with 15 ml of RPMI 1640 supplemented with 5% fetal calf serum and antibiotics. Cells were cultured at a concentration of 10^6 cells/0.1 ml/well in micro-plates. Cultures were incubated in the presence or absence of mitogen in a humidified atmosphere containing 5% CO2 for 48 hours. The test compound was added to cultures at various concentrations concommitant with mitogen.
Proliferation was assayed by the degree of incorporation of 1.0 μCi of [^3 H] thymidine over an 18 hour incubation period. Cultures were harvested by a MASH unit (Otto Hiller Co., Madison, Wisconsin) and thymidine incorporation was assayed by liquid scintillation spectrometry. Cultures were performed in triplicate and data are expressed as means plus or minus the strandard error of the experimental means. Drug stimulation indices over control values were also calculated and portrayed graphically.

[3] = test system: human peripheral blood lymphocytes; assay: Mitogen Induced (PHA) Human Lymphocyte Proliferation
[4] = test system: influenza virus; assay: Anti-influenza activity (summary)
[5] = test system: guinea pig peritoneal macrophages; assay: Lymphokine Induced (MMF) Guinea Pig Macrophage Proliferation
Excerpt: as §1
3. The macrophage represents a subpopulation of white blood cells which is an important component of the immune system in control of both cellular and humoral immunity. The assay system described below evaluates the substances studied as potentiators of macrophage function.
Phytohemagglutinin(PHA) (HA-17) was purchased from Burroughs Wellcome. A preparation containing Macrophage Mitogen Factor (MMF) and Macrophage Activating Factor (MAF) was prepared from antigen-stimulated immune lymph node lymphocytes (guinea pig) as previously described by Hadden et al, Nature 257, 483-485 (1975). […] The active fraction was employed in both the proliferation and activation assays.
Ficoll-hypaque purified human peripheral blood lymphocytes were prepared and PHA-induced lymphocyte proliferation was assayed by the incorporation of tritiated thymidine as described in Hadden et al, Cell. Immunol. 20, 98-103 (1975). Each compound was analyzed in the presence of suboptimal, optimal and supraoptimal concentrations of PHA (0.001, 0.01, 0.1 units/ml respectively). Paraffin oil-induced guinea pig peritoneal macrophages were prepared and incubated as monolayer culture (>98% pure macrophages). Lymphokine (MMF)-induced proliferation was assayed by the incorporation of triturated thymidine at 3 and 5 days of culture as described, Hadden et al, Nature 257, 483-485 (1975). Lymphokine (MAF)-induced macrophage activation to kill Listeria monocytogenes following 5 days of culture in the presence or absence of MAF was performed during a 6 hour period as described in Hadden and England, Immunopharmacology, pages 87-100 (Plenum Press, 1977). Phagocytosis was quantitated during a 20-minute exposure to Listeria monocytogenes by counting the number of macrophages containing bacteria and the number of bacteria per phagocytic cell on gram stained monolayers in Labtek chambers. Intracellular killing of bacteria was evaluated by counting the number of cells containing bacteria and the number of bacteria/cell 6 hours after the initial 20 minute exposure. Parallel experiments in which macrophages were lysed and intracellular bacteria were cultured confirm the validity of bacterial activity determined by this manner in this sytem. The drugs were employed in each of the three systems over serial log concentration range in triplicate in the presence and absence of mitogen or lymphokine. Each type of experiment was performed at least three times. Previous experiments indicate a parallelism of response to pharmacologic modulation in the proliferation and activation assays.

Row | SMILES | Maximum Percent Change, Mitogen Induced (Con A) Mouse Lymph. Prolif. ([2]; 1.0-10) | Maximum Percent Change, Mitogen Induced (Con A) Mouse Lymph. Prolif. ([2]; 10-100) | Maximum Percent Change, Mitogen Induced (Con A) Mouse Lymph. Prolif. ([2]; .01-1.0) | Maximum Percent Change, Mitogen Induced (PHA) Human Lymph. Prolif. ([3]; 1.0-10) | Maximum Percent Change, Mitogen Induced (PHA) Human Lymph. Prolif. ([3]; 10-100) [%] | Maximum Percent Change, Mitogen Induced (PHA) Human Lymph. Prolif. ([3]; .01-1.0) [%] | DIP.PAcBA potentiation of Anti-Influenza activity [4] | other results
1 | CC(CO)n1cnc2c(N)ncnc21 (centres unmarked) [NPT 15433, 9-(1-HYDROXY-2-PROPYL)ADENINE] | -23% | -65% | +15% | 0% | -50 | 53 |  | % Inhibition of Hemadsorption Foci ([1]; Conc. >100 μg/ml, listed as 15433): 0%
2 | CC(O)Cn1cnc2c(=O)[nH]cnc21 (centres unmarked) [NPT 15447] |  |  |  |  |  |  | Yes | % Inhibition of Hemadsorption Foci ([1]; Conc. 10-100 μg/ml, listed as 15447): 26%; % Inhibition of Hemadsorption Foci ([1]; Conc. <10 μg/ml, listed as 15447): 10%; % Inhibition of Hemadsorption Foci ([1]; Conc. >100 μg/ml, listed as 15447): 34%
3 | CC(O)Cn1cnc2c(N)ncnc21 (centres unmarked) [NPT 15432] |  |  |  |  |  |  | Yes | % Inhibition of Hemadsorption Foci ([1]; Conc. 10-100 μg/ml, listed as 15432): 48%; % Inhibition of Hemadsorption Foci ([1]; Conc. >100 μg/ml, listed as 15432): 62%
4 | CC(O)Cn1cnc2c(N)ncnc21 (centres unmarked) [NPT 15431, 9-(2-HYDROXY-1-PROPYL)ADENINE] | -27% | -47% | -15% | 0% | 0 | 0 |  | % Inhibition of Hemadsorption Foci ([1]; Conc. 10-100 μg/ml, listed as 15431): 22%; % Inhibition of Hemadsorption Foci ([1]; Conc. >100 μg/ml, listed as 15431): 0%
5 | CC(CO)n1cnc2c(=O)[nH]cnc21 (centres unmarked) [NPT 15443, 9-(1-HYDROXY-2-PROPYL)HYPOXANTHINE] | +27% | +27% | +17% | +13% | 0 | 0 |  | % Inhibition of Hemadsorption Foci ([1]; Conc. 10-100 μg/ml, listed as 15443): 0%; % Inhibition of Hemadsorption Foci ([1]; Conc. >100 μg/ml, listed as 15443): 0%; Maximum Percent Change, Lymphokine Induced (MMF) Guinea Pig Mac. Prolif. ([5]; 1.0-10): 0%; Maximum Percent Change, Lymphokine Induced (MMF) Guinea Pig Mac. Prolif. ([5]; .01-1.0): +20%
6 | CC(CO)n1cnc2c(N)ncnc21 (centres unmarked) [NPT 15434] |  |  |  |  |  |  | Yes | % Inhibition of Hemadsorption Foci ([1]; Conc. 10-100 μg/ml): 41%; % Inhibition of Hemadsorption Foci ([1]; Conc. >100 μg/ml, listed as 15434): 62%
